Measured values published in ChEMBL document CHEMBL4219219, “The synthesis and antistaphylococcal activity of N-sulfonaminoethyloxime derivatives of dehydroabietic acid” (Bioorg Med Chem Lett, 2018).
≈ marks a conversion by molar mass, not a printed value. Calls of active or inactive are those of the source. The rule behind the calls is not given here.

What was measured:
Staphylococcus aureus [1] = assay: Antistaphylococcal activity against erythromycin-resistant Staphylococcus aureus NRS-70 after 18 hrs by two-fold serial dilution method; type: functional; conditions: NRS-70, 18 h
Escherichia coli = assay: Antibacterial activity against Escherichia coli AB1157 at 50 ug/ml after 18 hrs by two-fold serial dilution method; type: functional, organism-based
Staphylococcus aureus [2] = assay: Antistaphylococcal activity against linezolid-resistant Staphylococcus aureus NRS-271 containing phage type E-MRSA 15 after 18 hrs by two-fold serial dilution method; type: functional; conditions: NRS-271, 18 h
Staphylococcus aureus [3] = assay: Antistaphylococcal activity against oxacillin/tetracycline-resistant Staphylococcus aureus NRS-100 after 18 hrs by two-fold serial dilution method; type: functional; conditions: NRS-100, 18 h
Staphylococcus aureus [4] = assay: Antistaphylococcal activity against gentamicin-resistant Staphylococcus aureus NRS-108 after 18 hrs by two-fold serial dilution method; type: functional; conditions: NRS-108, 18 h
Staphylococcus aureus [5] = assay: Antistaphylococcal activity against aminoglycosides/tetracycline-resistant Staphylococcus aureus NRS-1 after 18 hrs by two-fold serial dilution method; type: functional; conditions: NRS-1, 18 h
Staphylococcus aureus [6] = assay: Antistaphylococcal activity against Staphylococcus aureus Newman after 18 hrs by two-fold serial dilution method; type: functional
HEK-293T = assay: Cytotoxicity against HEK293T cells assessed as decrease in cell survival at 20 times MIC after 24 hrs by MTT assay; type: cell-based; conditions: human
Staphylococcus aureus [7] = assay: Metabolic stability in Staphylococcus aureus Newman at MIC after 12 hrs by LC-MS analysis; type: ADME, organism-based; conditions: in vivo
[8] = Metabolic stability in Sprague-Dawley rat plasma after 0.5 to 24 hrs by LC-MS analysis; type: ADME, cell-free
SCLC-21H = assay: Cytotoxicity against human SCLC-21H cells assessed as decrease in cell survival at 20 times MIC after 24 hrs by MTT assay; type: cell-based
WiDr = assay: Cytotoxicity against human WiDr cells assessed as decrease in cell survival at 20 times MIC after 24 hrs by MTT assay; type: cell-based
HGC-27 = assay: Cytotoxicity against human HGC27 cells assessed as decrease in cell survival at 20 times MIC after 24 hrs by MTT assay; type: cell-based; conditions: hgc-27, 24 h
J82 = assay: Cytotoxicity against human J82 cells assessed as decrease in cell survival at 20 times MIC after 24 hrs by MTT assay; type: cell-based; conditions: j82, 24 h
NCI-H23 = assay: Cytotoxicity against human H23 cells assessed as decrease in cell survival at 20 times MIC after 24 hrs by MTT assay; type: cell-based; conditions: nci-h23, 24 h

Structure (SMILES)	MIC (Staphylococcus aureus [1])	Activity (Escherichia coli)	MIC (Staphylococcus aureus [2])	MIC (Staphylococcus aureus [3])	MIC (Staphylococcus aureus [4])	MIC (Staphylococcus aureus [5])	MIC (Staphylococcus aureus [6])	Activity (HEK-293T)	Stability (Staphylococcus aureus [7])	Stability [8]	Activity (SCLC-21H)	Activity (WiDr)	Activity (HGC-27)	Activity (J82)	Activity (NCI-H23)
CC(C)c1cc2c(cc1Br)[C@@]1(C)CCC[C@@](C)(C(=O)O)[C@@H]1C/C2=N\OCCNS(=O)(=O)c1cccc(C(F)(F)F)c1	0.78 to 1.56 µg/mL (≈ 1.18 to 2.37 µM)	inactive	1.56 to 3.13 µg/mL (≈ 2.37 to 4.75 µM)	1.56 to 3.13 µg/mL (≈ 2.37 to 4.75 µM)	0.78 to 1.56 µg/mL (≈ 1.18 to 2.37 µM)	1.56 to 3.13 µg/mL (≈ 2.37 to 4.75 µM)	0.39 to 0.78 µg/mL (≈ 0.591 to 1.18 µM)	–	–	–	–	–	–	–	–
CC(C)c1cc2c(cc1Br)[C@@]1(C)CCC[C@@](C)(C(=O)O)[C@@H]1C/C2=N\OCCNS(=O)(=O)c1ccc(Br)s1	1.56 to 3.13 µg/mL (≈ 2.31 to 4.63 µM)	inactive	1.56 to 3.13 µg/mL (≈ 2.31 to 4.63 µM)	1.56 to 3.13 µg/mL (≈ 2.31 to 4.63 µM)	1.56 to 3.13 µg/mL (≈ 2.31 to 4.63 µM)	1.56 to 3.13 µg/mL (≈ 2.31 to 4.63 µM)	1.56 to 3.13 µg/mL (≈ 2.31 to 4.63 µM)	–	–	–	–	–	–	–	–
CC(C)c1cc2c(cc1Br)[C@@]1(C)CCC[C@@](C)(C(=O)O)[C@@H]1C/C2=N\OCCNS(=O)(=O)c1ccc2ccccc2c1	1.56 to 3.13 µg/mL (≈ 2.43 to 4.88 µM)	inactive	3.13 to 6.25 µg/mL (≈ 4.88 to 9.74 µM)	3.13 to 6.25 µg/mL (≈ 4.88 to 9.74 µM)	1.56 to 3.13 µg/mL (≈ 2.43 to 4.88 µM)	3.13 to 6.25 µg/mL (≈ 4.88 to 9.74 µM)	1.56 to 3.13 µg/mL (≈ 2.43 to 4.88 µM)	–	–	–	–	–	–	–	–
CC(C)c1cc2c(cc1Br)[C@@]1(C)CCC[C@@](C)(C(=O)O)[C@@H]1C/C2=N\OCCNS(=O)(=O)c1ccccc1Cl	0.78 to 1.56 µg/mL (≈ 1.25 to 2.49 µM)	inactive	1.56 to 3.13 µg/mL (≈ 2.49 to 5 µM)	1.56 to 3.13 µg/mL (≈ 2.49 to 5 µM)	1.56 to 3.13 µg/mL (≈ 2.49 to 5 µM)	1.56 to 3.13 µg/mL (≈ 2.49 to 5 µM)	0.78 to 1.56 µg/mL (≈ 1.25 to 2.49 µM)	–	–	–	–	–	–	–	–
CC(C)c1cc2c(cc1Br)[C@@]1(C)CCC[C@@](C)(C(=O)O)[C@@H]1C/C2=N\OCCNS(=O)(=O)c1ccc(Br)c(C(F)(F)F)c1	0.78 to 1.56 µg/mL (≈ 1.06 to 2.11 µM)	inactive	0.78 to 1.56 µg/mL (≈ 1.06 to 2.11 µM)	0.78 to 1.56 µg/mL (≈ 1.06 to 2.11 µM)	0.78 to 1.56 µg/mL (≈ 1.06 to 2.11 µM)	0.78 to 1.56 µg/mL (≈ 1.06 to 2.11 µM)	0.78 to 1.56 µg/mL (≈ 1.06 to 2.11 µM)	–	–	–	–	–	–	–	–
CC(C)c1cc2c(cc1Br)[C@@]1(C)CCC[C@@](C)(C(=O)O)[C@@H]1C/C2=N\OCCNS(=O)(=O)c1ccc(Br)cc1	0.78 to 1.56 µg/mL (≈ 1.16 to 2.33 µM)	inactive	0.78 to 1.56 µg/mL (≈ 1.16 to 2.33 µM)	0.78 to 1.56 µg/mL (≈ 1.16 to 2.33 µM)	0.78 to 1.56 µg/mL (≈ 1.16 to 2.33 µM)	0.78 to 1.56 µg/mL (≈ 1.16 to 2.33 µM)	0.78 to 1.56 µg/mL (≈ 1.16 to 2.33 µM)	–	–	–	–	–	–	–	–
CC(C)c1cc2c(cc1Br)[C@@]1(C)CCC[C@@](C)(C(=O)O)[C@@H]1C/C2=N\OCCNS(=O)(=O)c1ccccc1	0.78 to 1.56 µg/mL (≈ 1.32 to 2.64 µM)	inactive	1.56 to 3.13 µg/mL (≈ 2.64 to 5.29 µM)	1.56 to 3.13 µg/mL (≈ 2.64 to 5.29 µM)	1.56 to 3.13 µg/mL (≈ 2.64 to 5.29 µM)	1.56 to 3.13 µg/mL (≈ 2.64 to 5.29 µM)	1.56 to 3.13 µg/mL (≈ 2.64 to 5.29 µM)	–	–	–	–	–	–	–	–
CC(C)c1cc2c(cc1Br)[C@@]1(C)CCC[C@@](C)(C(=O)O)[C@@H]1C/C2=N\OCCNS(=O)(=O)c1cccc(Br)c1	0.78 to 1.56 µg/mL (≈ 1.16 to 2.33 µM)	inactive	1.56 to 3.13 µg/mL (≈ 2.33 to 4.67 µM)	1.56 to 3.13 µg/mL (≈ 2.33 to 4.67 µM)	0.78 to 1.56 µg/mL (≈ 1.16 to 2.33 µM)	1.56 to 3.13 µg/mL (≈ 2.33 to 4.67 µM)	0.78 to 1.56 µg/mL (≈ 1.16 to 2.33 µM)	–	–	–	–	–	–	–	–
Cc1ccccc1S(=O)(=O)NCCO/N=C1\C[C@H]2[C@](C)(C(=O)O)CCC[C@]2(C)c2cc(Br)c(C(C)C)cc21	1.56 to 3.13 µg/mL (≈ 2.58 to 5.17 µM)	inactive	1.56 to 3.13 µg/mL (≈ 2.58 to 5.17 µM)	3.13 to 6.25 µg/mL (≈ 5.17 to 10.3 µM)	1.56 to 3.13 µg/mL (≈ 2.58 to 5.17 µM)	1.56 to 3.13 µg/mL (≈ 2.58 to 5.17 µM)	1.56 to 3.13 µg/mL (≈ 2.58 to 5.17 µM)	–	–	–	–	–	–	–	–
Cc1ccc(S(=O)(=O)NCCO/N=C2\C[C@H]3[C@](C)(C(=O)O)CCC[C@]3(C)c3cc(Br)c(C(C)C)cc32)cc1	1.56 to 3.13 µg/mL (≈ 2.58 to 5.17 µM)	inactive	3.13 to 6.25 µg/mL (≈ 5.17 to 10.3 µM)	3.13 to 6.25 µg/mL (≈ 5.17 to 10.3 µM)	1.56 to 3.13 µg/mL (≈ 2.58 to 5.17 µM)	3.13 to 6.25 µg/mL (≈ 5.17 to 10.3 µM)	1.56 to 3.13 µg/mL (≈ 2.58 to 5.17 µM)	–	–	–	–	–	–	–	–
CC(C)c1cc2c(cc1Br)[C@@]1(C)CCC[C@@](C)(C(=O)O)[C@@H]1C/C2=N\OCCNS(=O)(=O)c1ccc(Cl)s1	0.78 to 1.56 µg/mL (≈ 1.23 to 2.47 µM)	inactive	1.56 to 3.13 µg/mL (≈ 2.47 to 4.95 µM)	1.56 to 3.13 µg/mL (≈ 2.47 to 4.95 µM)	1.56 to 3.13 µg/mL (≈ 2.47 to 4.95 µM)	1.56 to 3.13 µg/mL (≈ 2.47 to 4.95 µM)	1.56 to 3.13 µg/mL (≈ 2.47 to 4.95 µM)	–	–	–	–	–	–	–	–
Cc1ccc(C)c(S(=O)(=O)NCCO/N=C2\C[C@H]3[C@](C)(C(=O)O)CCC[C@]3(C)c3cc(Br)c(C(C)C)cc32)c1	0.78 to 1.56 µg/mL (≈ 1.26 to 2.52 µM)	inactive	3.13 to 6.25 µg/mL (≈ 5.05 to 10.1 µM)	1.56 to 3.13 µg/mL (≈ 2.52 to 5.05 µM)	1.56 to 3.13 µg/mL (≈ 2.52 to 5.05 µM)	3.13 to 6.25 µg/mL (≈ 5.05 to 10.1 µM)	1.56 to 3.13 µg/mL (≈ 2.52 to 5.05 µM)	–	–	–	–	–	–	–	–
CC(C)c1cc2c(cc1Br)[C@@]1(C)CCC[C@@](C)(C(=O)O)[C@@H]1C/C2=N\OCCNS(=O)(=O)c1ccccc1Br	1.56 to 3.13 µg/mL (≈ 2.33 to 4.67 µM)	inactive	1.56 to 3.13 µg/mL (≈ 2.33 to 4.67 µM)	1.56 to 3.13 µg/mL (≈ 2.33 to 4.67 µM)	1.56 to 3.13 µg/mL (≈ 2.33 to 4.67 µM)	1.56 to 3.13 µg/mL (≈ 2.33 to 4.67 µM)	1.56 to 3.13 µg/mL (≈ 2.33 to 4.67 µM)	–	–	–	–	–	–	–	–
CC(C)c1cc2c(cc1Br)[C@@]1(C)CCC[C@@](C)(C(=O)O)[C@@H]1C/C2=N\OCCNS(=O)(=O)c1ccc(C(F)(F)F)cc1	0.78 to 1.56 µg/mL (≈ 1.18 to 2.37 µM)	inactive	0.78 to 1.56 µg/mL (≈ 1.18 to 2.37 µM)	0.78 to 1.56 µg/mL (≈ 1.18 to 2.37 µM)	0.78 to 1.56 µg/mL (≈ 1.18 to 2.37 µM)	0.78 to 1.56 µg/mL (≈ 1.18 to 2.37 µM)	1.56 to 3.13 µg/mL (≈ 2.37 to 4.75 µM)	Non-Toxic	Stable	Stable	Non-Toxic	Non-Toxic	Non-Toxic	Non-Toxic	Non-Toxic
CC(C)c1cc2c(cc1Br)[C@@]1(C)CCC[C@@](C)(C(=O)O)[C@@H]1C/C2=N\OCCNS(=O)(=O)c1ccc(Cl)cc1	0.78 to 1.56 µg/mL (≈ 1.25 to 2.49 µM)	inactive	1.56 to 3.13 µg/mL (≈ 2.49 to 5 µM)	1.56 to 3.13 µg/mL (≈ 2.49 to 5 µM)	1.56 to 3.13 µg/mL (≈ 2.49 to 5 µM)	1.56 to 3.13 µg/mL (≈ 2.49 to 5 µM)	0.78 to 1.56 µg/mL (≈ 1.25 to 2.49 µM)	–	–	–	–	–	–	–	–
